In brackets after ≈: the same amount, converted by molar mass.
Columns and labels:
[1] = test system: Mtb IZAK (multidrug-resistant clinical isolate); experiment: microbe, parasite or virus in culture; format: cell-based, Mycobacterium tuberculosis; settings: for Mtb IZAK susceptibility class (R/S): MDR clinical isolate; for MIC: Mycobacterium tuberculosis, read-out: Mtb IZAK MIC
[2] = test system: Mtb MATI (multidrug-resistant clinical isolate); experiment: microbe, parasite or virus in culture; format: cell-based, Mycobacterium tuberculosis; settings: for Mtb MATI susceptibility class (R/S): MDR clinical isolate; for MIC: Mycobacterium tuberculosis, read-out: Mtb MATI MIC
Mtb laboratory ID IZAK = settings: MDR clinical isolate; external resistance profiling; cited from earlier work
Mtb laboratory ID MATI = settings: MDR clinical isolate; external resistance profiling; cited from earlier work

| Structure (SMILES) | Mtb IZAK susceptibility class (R/S) [1] | MIC [1] | Mtb MATI susceptibility class (R/S) [2] | MIC [2] | Mtb IZAK MIC, value from external resistance profiling (*) (Mtb laboratory ID IZAK) | Mtb MATI MIC, value from external resistance profiling (*) (Mtb laboratory ID MATI) |
| --- | --- | --- | --- | --- | --- | --- |
| NNC(=O)c1ccncc1 [INH, isoniazid] | R | 4 µg/mL (≈ 29.2 µM) | R | > 8 µg/mL | – | – |
| CC[C@@H](CO)NCCN[C@@H](CC)CO [EMB, ethambutol] | S | 0.39 µg/mL (≈ 1.91 µM) | S | 0.39 µg/mL (≈ 1.91 µM) | 0.5 µg/mL | 0.5 µg/mL |
| NC(=O)c1nccnc1NC(=O)c1ccc(Cl)cc1 [Compound 15] | – | 12.5 µg/mL (≈ 45.2 µM) | – | 12.5 µg/mL (≈ 45.2 µM) | – | – |
| [H]/N=C(/N)N[C@H]1[C@H](O)[C@@H](O)[C@H](O[C@@H]2O[C@@H](C)[C@](O)(C=O)[C@H]2O[C@@H]2O[C@@H](CO)[C@H](O)[C@@H](O)[C@@H]2NC)[C@@H](N/C(N)=N\[H])[C@@H]1O [STM, streptomycin] | R | – | R | – | 4 µg/mL | > 16 µg/mL |
| NC(=O)c1cnccn1 [PZA, pyrazinamide] | R | – | R | – | > 16 µg/mL | > 128 µg/mL |
| Cc1ccc(C(=O)Nc2nccnc2C(N)=O)cc1 [Compound 4] | – | 12.5 µg/mL (≈ 48.8 µM) | – | 12.5 µg/mL (≈ 48.8 µM) | – | – |
| CO[C@H]1/C=C/O[C@@]2(C)Oc3c(C)c(O)c4c(O)c(c(/C=N/N5CCN(C)CC5)c(O)c4c3C2=O)NC(=O)/C(C)=C\C=C\[C@H](C)[C@H](O)[C@@H](C)[C@@H](O)[C@@H](C)[C@H](OC(C)=O)[C@@H]1C [RIF, rifampicin] | R | – | R | – | > 8 µg/mL | > 8 µg/mL |
| NC(=O)c1nccnc1NC(=O)c1ccc(F)cc1 [Compound 12] | – | 100 µg/mL (≈ 384 µM) | – | 100 µg/mL (≈ 384 µM) | – | – |
| NC(=O)c1nccnc1NC(=O)c1ccc(Br)cc1 [Compound 18] | – | 12.5 µg/mL (≈ 38.9 µM) | – | 12.5 µg/mL (≈ 38.9 µM) | – | – |

Reference: PMC9687610, “Adenosine-Mimicking Derivatives of 3-Aminopyrazine-2-Carboxamide: Towards Inhibitors of Prolyl-tRNA Synthetase with Antimycobacterial Activity” (Biomolecules, 2022)
